Assay results as given in article PMC4827351 (Chemical Science, 2015).

Key:
[1] = system: E. coli ATCC 25922; assay: SEM analysis of bacterial agglutination; assay type: cell-based, Escherichia coli; conditions: 3 µM proHD6 treated with trypsin before incubation (trypsin inactivated with APMSF), 30 min, 50 mM Tris-maleate pH 6.4
Description: Fig. 3 TEM analysis of HD6 self-assembly and SEM analysis of bacterial agglutination. Top row: transmission electron micrographs of 10 mM sodium phosphate pH 7.4 (control), 0.4 μM trypsin (control), 20 μM proHD6 in the absence and presence of 0.4 μM trypsin, and 20 μM HD6. All the samples were incubated at room temperature for 1 h. Scale bar = 100 nm. TEM images obtained using 10 mM Tris-maleate pH 6.4 are presented in Fig. S7. ^† Middle row: scanning electron micrographs of E. coli ATCC 25922 treated with 50 mM Tris-maleate pH 6.4 (control), 0.4 μM APMSF-inactivated trypsin (control), 3 μM proHD6, 3 μM trypsin-cleaved proHD6, or 3 μM HD6. Trypsin-cleaved proHD6 was prepared prior to incubation with the bacteria and the residual enzymatic activity was inhibited by APMSF (Experimental section). Following a 30 min incubation, the bacterial suspensions were centrifuged, fixed, and analyzed by SEM. Scale bar = 20 μm. Bottom row: SEM of L. monocytogenes ATCC19115 treated under the same conditions as in the middle row. Scale bar = 20 μm.
Bacteria were grown aerobically at 37 °C overnight in LB media. The next morning the strains were subcultured and grown to mid-logarithmic phase in LB media. […]

[2] = system: Salmonella enterica serovar Typhimurium; assay: SEM analysis of bacterial agglutination; assay type: cell-based; conditions: 3 µM proHD6 treated with trypsin before incubation (trypsin inactivated with APMSF), 30 min, 50 mM Tris-maleate pH 6.4
Description: Bacteria were grown aerobically at 37 °C overnight in LB media. The next morning the strains were subcultured and grown to mid-logarithmic phase in LB media. An aliquot of the bacteria (0.5–2 × 10^7 CFU mL^–1) was removed, sedimented by centrifugation (7000g × 2 min, 4 °C), washed twice with 50 mM Tris-maleate buffer, pH 6.4, and then resuspended in 0.5 mL of the 50 mM Tris-maleate buffer. The bacterial suspension was incubated at room temperature for 30 min with buffer control, 0.4 μM APMSF-inactivated trypsin, 3 μM proHD6, 3 μM trypsin-cleaved proHD6, or 3 μM HD6. Trypsin-cleaved proHD6 was prepared by incubating 30 μM proHD6 with 4 μM trypsin (Affimetrix, Santa Clara, CA) for 1 h at room temperature in 50 mM Tris-maleate buffer, pH 6.4. At the end of incubation, the trypsin was inactivated by addition of APMSF (p-amidinophenylmethylsulfonylfluoride HCl, Millipore, 25 μg mL^–1), and the mixture was added to the bacterial suspension. The APMSF-inactivated trypsin was similarly prepared, except that proHD6 was omitted from the preincubation. After a 30 min incubation, the treated bacterial suspensions were sedimented by centrifugation (7000g × 5 min, 4 °C), and the buffer supernatant was carefully removed. […]

With “EPLQAEDDPLQAKAYEADAQEQRGANDQDFAVSFAEDASSSLRALGSTRAFTCHCRRSCYSTEYSYGTCTVMGINHRFCCL (disulfide (positions not given here)) [proHD6, 81-residue propeptide of human α-defensin 6, recombinant, from His6-SUMO-proHD6]” the “bacterial agglutination (SEM), trypsin-cleaved” value [1] was “entangled and agglutinated E. coli” and the “bacterial agglutination (SEM), trypsin-cleaved” value [2] was “did not agglutinate S. Typhimurium unless it was treated with trypsin”.
